From US9632085B2, “Rapid antibiotic susceptibility testing” (PRESIDENT AND FELLOWS OF HARVARD COLLEGE, priority 2012, dated 2017)

Legend:
DH5alpha E. coli = experiment: FcMBL bead captured bacteria cultured 2 hours in LB with or without antibiotic, quantified on LB Agar plates; type: cell-based; conditions: 2 hours at 37° C. in LB; Carbenicillin 100 μg/ml (FIG. 3 legend); range of titers down to 300 colonies
Protocol: In preliminary studies, the inventors tested the discrimination of the antibiotic susceptibility assay described herein with a range of titers of DH5alpha E. coli (corresponding to blood titers from a range of sepsis patients from septic shock to SIRS) FcMBL bead captured bacteria were cultured for 2 hours at 37° C. with vigorous agitation/aeration in Luria Broth (LB) or in LB supplemented with the bacteriocidal antibiotic Carbenicillin or the bacteriostatic antibiotic Spectomycin. The bacteria were quantified on LB Agar plates. In all cases, the inventors were able to discriminate between the growth in LB compared with growth in LB with bacteriocidal or bacteriostatic antibiotic (see FIG. 3).

E. coli = experiment: Antibiotic susceptibility from single bacterium: FcMBL bead capture, gel matrix, resazurin/Sytox Green 11 live-dead imaging; type: cell-based; conditions: kanamycin at 50 μg/ml in BHI; captured E. coli grown in gel matrix; time after antibiotic addition
Protocol: Bacteria in a biological sample were captured by FcMBL coated magnetic beads. The bead/bacteria were washed and added to a microscope compatible surface (for example, plasma treated coverslip or glass bottom microplates) and immobilized by an underlying magnet. A low melt agarose gel 37° C. containing growth media (BHI), resazurin (a stain for labeling live cells), and Sytox Green 11 (a stain for labeling dead cells) was overlaid on the bacteria-bound FcMBL magnetic beads to immobilize and/or secure the bacteria in place. In some embodiments where the bead/bacteria were spotted on glass bottom microplates, the wells were filled with growth medium containing fluorescent stains for live and/or dead cells. The captured bacteria were incubated on the slide or in the wells for about 1-2 hours at about 36-37° C. and imaged by microscopy, e.g., fluorescent microscopy. Live cells could be identified by resorufin (metabolized resazurin) stain and coordinates of the live cells could be determined and stored for iterative imaging. […] Bacteria can be observed for, for example, growth in the presence of the antibiotics (to determine the resistance of the bacteria to the particular antibiotics), cell death determined by fluorescent stain for dead cells (to determine bactericidal activity), and/or inhibition of growth (to determine bacteriostatic activity). […]

| Structure (SMILES) | bacterial counts compared with LB and LB with bacteriostatic antibiotic (DH5alpha E. coli) | color change from red-resorufin to green Sytox green 11 (cell death) observed for some of the bacteria (E. coli) | complete effect for all cells in the tracked fields of vision (E. coli) |
| --- | --- | --- | --- |
| CC1(C)S[C@@H]2[C@H](NC(=O)C(C(=O)O)c3ccccc3)C(=O)N2[C@H]1C(=O)O (stereo partly drawn) [Carbenicillin] | lowest of the three conditions tested | – | – |
| NC[C@H]1O[C@H](O[C@H]2[C@H](O)[C@@H](O[C@H]3O[C@H](CO)[C@@H](O)[C@H](N)[C@H]3O)[C@H](N)C[C@@H]2N)[C@H](O)[C@@H](O)[C@@H]1O [Kanamycin] | – | ≤ 5 min | 30 to 40 min |
